What all share (assay): NCI anticancer screen, dose series, 48 h
The test system of assay [1] is SW-620 colon.
Assay [2] has as its system OVCAR-4 ovarian.
Assay [3] relates to UACC-62 melanoma.
The test system of assay [4] is OVCAR-8 ovarian.
Assay [5] has as its system 786-0 renal.
Assay [6] deals with MALME-3M melanoma.
Assay [7] has as its system U251 CNS.
Assay [8] deals with CAKI-1 renal.
For assay [9], the system named is LOX IMVI melanoma.
Assay [10] has as its system K-562 leukemia.

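Values below derive from 48-hour exposures of cells grown in 96-well plates, with endpoints linearly interpolated between the two concentrations bracketing the appropriate inhibition level. GI50 marks 50% less growth. The concentration for full growth arrest is given as TGI.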

In the case of `O=C(Nc1cccnc1)c1ccc2ccc3ccc(C(=O)Nc4cccnc4)nc3c2n1`, the GI50 in [1] was 0.0781 µM; in assay [2], 0.37 µM; in assay [3] it was 0.205 µM; in assay [4], 0.231 µM; in [5] it was 0.206 µM; in assay [6], > 100 µM. Also, the GI50 in assay [7] was 0.0613 µM; in assay [8] it was 0.135 µM; in [9], 0.18 µM; in assay [10], 0.0526 µM. For the same compound, the TGI in assay [1], in assay [2], in assay [3], in [4], in [5] and in assay [6] was > 100 µM throughout. For the same compound, the TGI in assay [7], in assay [8], in assay [9] and in assay [10] was > 100 µM each time.
`CCOC(=O)c1csc(NC(=O)COc2cccc(/C=C3\CSc4ccccc4C3=O)c2)n1`: the GI50 in assay [1] was 0.992 µM; in assay [2] it was 3.69 µM; in assay [3] it was 2.61 µM; in assay [4], 1.59 µM; in assay [5], 0.561 µM; in [6], 0.296 µM. The GI50 in assay [7] was 0.585 µM; in [8] it was 1.26 µM; in assay [9] it was 0.071 µM; in assay [10], > 100 µM. For the same compound, the TGI in [1] came to 2.7 µM; in assay [2], 17.9 µM; in assay [3], 7.02 µM; in assay [4] it was 6.97 µM; in assay [5] it was 1.69 µM; in [6] it was 1.22 µM. In addition, the TGI was 1.31 µM in assay [7], 18.2 µM in assay [8], 0.208 µM in [9] and > 100 µM in [10].
With `O=C(Nc1nc(-c2ccc(Cl)cc2)nc2c1sc(=S)n2-c1ccccc1)C(F)(F)F`, the GI50 was 4.34 µM in [1]; 1.95 µM in [2]; 3.55 µM in [3]; 4.21 µM in assay [4]; 1.67 µM in assay [5]; 2.89 µM in [6]. Moreover, the GI50 in [7] was 3.23 µM; in assay [8], 4 µM; in [9] it was 2.43 µM; in assay [10], 6.37 µM. For the same compound, the TGI in [1] is 26.3 µM; in assay [2], 4.19 µM; in assay [3] it was 15 µM; in assay [4], 21.1 µM; in assay [5], 3.27 µM; in assay [6], 7.08 µM. In addition, the TGI in assay [7] was 9.87 µM; in [8], 16 µM; in assay [9], 6.46 µM; in [10] it was > 100 µM.
As to `O=C1C(=O)N(c2cccc(C(F)(F)F)c2)C(=O)C(=O)C1c1nc2ccccc2s1`, the TGI in [1] is > 100 µM; in assay [2], > 100 µM; in assay [3], > 100 µM; in [4] it was > 53.8 µM; in assay [5] it was > 100 µM; in assay [6] it was > 100 µM. Besides, the TGI in assay [7], in assay [8], in assay [9] and in [10] was > 100 µM each time.
In the case of `CC(=O)O[C@H]1C(=O)[C@@]2(C)[C@H]([C@H](OC(=O)c3ccccc3)[C@@]3(O)C[C@H](O)C(C)=C1C3(C)C)[C@]1(OC(C)=O)CO[C@@H]1C[C@@H]2O`, the TGI in [1], in [2], in assay [3], in [4], in assay [5] and in assay [6] was > 100 µM throughout. Further, the TGI in assay [7], in [8], in [9] and in assay [10] was > 100 µM throughout.
With `CC(=O)NC(CCCCN(Cc1ccccc1)C(=O)N(CCCl)N=O)C(=O)NCc1ccccc1` (stereo not given), the TGI in [1] was > 70.7 µM; in assay [2], > 100 µM; in assay [3], 36.5 µM; in [4], 43.2 µM; in assay [5] it was 24.9 µM; in assay [6], 58.1 µM. In addition, the TGI in assay [7] is 39.7 µM; in [8] it was 97.7 µM; in assay [9], > 58.1 µM; in [10] it was > 89.4 µM.
For the compound `O=C(O)CCSC(=S)Nc1cccc(F)c1`, the TGI in assay [1] was > 100 µM; in assay [2], > 100 µM; in assay [3], 29.5 µM; in assay [4], > 100 µM; in assay [5] it was > 100 µM; in assay [6], > 100 µM. The TGI was > 100 µM in assay [7], > 100 µM in assay [8], 42.6 µM in assay [9] and > 100 µM in assay [10].
`O=C(O)CCSC(=O)Nc1ccccc1Cl`: the TGI in assay [1], in assay [2], in assay [3], in assay [4], in assay [5] and in [6] was > 100 µM each time. In addition, the TGI in [7], in [8], in assay [9] and in assay [10] was > 100 µM in each case.
As for `CC(O)CN1c2ccccc2Sc2ccc(Cl)cc21` (stereo not given), the TGI in [1], in assay [2], in assay [3], in [4], in assay [5] and in [6] was > 10 µM each time. Moreover, the TGI in [7], in assay [8], in assay [9] and in [10] was > 10 µM throughout.
For the compound `CC[C@@H](C)Nc1cc(C(=O)NC2CC3CCC(C2)N3c2ccc(C(=O)C3CC3)cn2)c(C)cc1C(N)=O` (stereo not given in full), the GI50 was 0.0323 µM in assay [1]; 1.31 µM in assay [2]; 0.036 µM in [3]; 0.047 µM in [4]; 0.152 µM in [5]; 0.0383 µM in assay [6]. Moreover, the GI50 was 0.0669 µM in [7], 0.0597 µM in [8], 0.0301 µM in assay [9] and 0.0378 µM in assay [10]. The TGI was > 100 µM in [1]; > 100 µM in assay [2]; 12.1 µM in assay [3]; > 100 µM in assay [4]; > 100 µM in assay [5]; > 75.5 µM in [6]. For the same compound, the TGI in assay [7] was > 100 µM; in assay [8] it was > 100 µM; in assay [9], 0.102 µM; in assay [10], > 100 µM.

The record behind these values is PubChem BioAssay (NCI).
